Assay results: ChEMBL document CHEMBL1142867, “Antiviral activity of triazine analogues of 1-(S)-[3-hydroxy-2-(phosphonomethoxy)propyl]cytosine (cidofovir) and related compounds” (J Med Chem, 2007)
Converted amounts (≈) assume the structure as drawn.

Assays:
[1] = system: Punta Toro virus; assay type: functional, organism-based; details: Vero
[2] = Cytotoxicity against E6SM cells assessed as alteration in cell morphology; assay type: cell-based; details: human
[3] = Cytotoxicity against HeLa cells assessed as alteration in cell morphology; assay type: cell-based; details: human
[4] = Cytotoxicity against Vero cells assessed as alteration in cell morphology; assay type: cell-based; details: chlorocebus sabaeus
[5] = Cytotoxicity against C3H cells assessed as alteration in cell morphology; assay type: cell-based; details: mouse
[6] = Cytotoxicity against CEM cells assessed as reduction of cell growth; assay type: cell-based; details: human, CEM (CCRF-CEM) cells
[7] = system: Human alphaherpesvirus 1; assay type: functional, organism-based; details: Human alphaherpesvirus 1, KOS, HEL
[8] = system: Human alphaherpesvirus 1; assay type: functional, organism-based; details: Human alphaherpesvirus 1, KOS, HEL; remark: listed apart in the source
[9] = system: Human alphaherpesvirus 2; assay type: functional, organism-based; details: Human alphaherpesvirus 2, Lyons, HEL
[10] = system: Human alphaherpesvirus 2; assay type: functional, organism-based; details: Human alphaherpesvirus 2, G, HEL
[11] = system: Human alphaherpesvirus 3; assay: Antiviral activity against VZV OKA in HEL cells assessed as inhibition of plaque formation; assay type: functional, organism-based; details: Human alphaherpesvirus 3, OKA
[12] = system: Human alphaherpesvirus 3; assay: Antiviral activity against TK- VZV 07-1 in HEL cells assessed as inhibition of plaque formation; assay type: functional, organism-based; details: Human alphaherpesvirus 3, 07-1, HEL
[13] = system: Human betaherpesvirus 5; assay type: functional, organism-based; details: Human betaherpesvirus 5, AD169, HEL
[14] = system: Human betaherpesvirus 5; assay type: functional, organism-based; details: Human betaherpesvirus 5, Davis, HEL
[15] = system: Vaccinia virus; assay type: functional, organism-based; details: Orthopoxvirus vaccinia, Lederle, HEL
[16] = Cytotoxicity against HEL cells assessed as alteration in cell morphology after 3 days; assay type: cell-based; details: human, read-out: Activity
[17] = system: HEL; assay: Cytotoxicity against HEL cells assessed as inhibition of cell growth after 3 days; assay type: cell-based; details: human, 72 h
[18] = system: Human immunodeficiency virus 1; assay type: functional, organism-based; details: Human immunodeficiency virus 1, 3B, CCRF-CEM
[19] = system: Human immunodeficiency virus 2; assay type: functional, organism-based; details: Human immunodeficiency virus 2, ROD, CCRF-CEM
[20] = system: Moloney murine sarcoma virus; assay: Antiviral activity against MSV in mouse C3H cells assessed as inhibition of virus-induced transformation after 6 days; assay type: functional, organism-based; details: 144 h
[21] = system: Coxsackievirus B4; assay type: functional, organism-based; details: Enterovirus B, HeLa
[22] = system: Coxsackievirus B4; assay type: functional, organism-based; details: Enterovirus B, Vero
[23] = system: Respiratory syncytial virus; assay type: functional, organism-based; details: human respiratory syncytial virus, Long, HeLa
[24] = system: Human respirovirus 3; assay type: functional, organism-based; details: Human respirovirus 3, Vero
[25] = system: Mammalian orthoreovirus 1; assay type: functional, organism-based; details: Mammalian orthoreovirus 1, Vero
[26] = system: Sindbis virus; assay type: functional, organism-based; details: Vero
[27] = system: Vesicular stomatitis virus; assay: microbe, parasite or virus in culture; details: E6SM
[28] = system: Vesicular stomatitis virus; assay: microbe, parasite or virus in culture; details: HeLa
[29] = Cytotoxicity against Huh5-2 cells assessed as reduction of cell growth; assay type: cell-based, Huh-5-2; details: human
[30] = system: Human adenovirus 2; assay type: functional, organism-based; details: Human mastadenovirus C, HEL
[31] = Cytotoxicity against HSB2 cells assessed as alteration in cell morphology; assay type: cell-based, CCRF-HSB-2; details: human, read-out: Activity

Compound	EC50 [1]	MCC [2]	MCC [3]	MCC [4]	MCC [5]	EC50 [7]	EC50 [8]	EC50 [10]	EC50 [11]	EC50 [14]	MCC at 72 h [16]	Activity [17]	EC50 [18]	EC50 [21]	EC50 [22]	EC50 [23]	EC50 [24]	EC50 [25]	EC50 [26]	EC50 [28]	further results
Nc1ncn(C[C@H](O)CO)c(=O)n1	> 100 mg/L	> 100 µg/mL	> 100 µg/mL	> 100 µg/mL	> 100 µg/mL	> 100 mg/L	> 100 mg/L	> 100 mg/L	> 100 mg/L	> 100 mg/L	> 100 µg/mL	> 100 µg/mL	> 100 mg/L	> 100 mg/L	> 100 mg/L	> 100 mg/L	> 100 mg/L	> 100 mg/L	> 100 mg/L	> 100 mg/L	CC50 [6]: > 100 mg/L; EC50 [9]: > 100 mg/L; EC50 [12]: > 100 mg/L; EC50 [13]: > 100 mg/L; EC50 [15]: > 100 mg/L; EC50 [19]: > 100 mg/L; EC50 [20]: > 100 mg/L; EC50 [27]: > 100 mg/L
Nc1ncnc2c1ncn2C[C@H](O)CO [(S)-DHPA]	48 mg/L (≈ 229 µM)	> 400 µg/mL	> 400 µg/mL	> 400 µg/mL	> 100 µg/mL								> 100 mg/L	> 400 mg/L	240 mg/L (≈ 1150 µM)	> 400 mg/L	48 mg/L (≈ 229 µM)	48 mg/L (≈ 229 µM)	240 mg/L (≈ 1150 µM)	400 mg/L (≈ 1910 µM)	EC50 [19]: > 100 mg/L; EC50 [20]: > 100 mg/L
Nc1nc2c(ncn2COCCO)c(=O)[nH]1 [ACYCLOVIR]						0.015 mg/L (≈ 0.0666 µM)	> 20 mg/L	0.048 mg/L (≈ 0.213 µM)			> 100 µg/mL	173.5 µg/mL									
C[C@H](Cn1cnc(N)nc1=O)OCP(=O)(O)O	> 100 mg/L	> 100 µg/mL	> 100 µg/mL	> 100 µg/mL	> 100 µg/mL	> 100 mg/L		> 100 mg/L	> 100 mg/L	> 100 mg/L	> 50 µg/mL	> 50 µg/mL	> 100 mg/L	> 100 mg/L	> 100 mg/L	> 100 mg/L	> 100 mg/L	> 100 mg/L	> 100 mg/L	> 100 mg/L	CC50 [6]: > 100 mg/L; EC50 [12]: > 100 mg/L; EC50 [13]: > 100 mg/L; EC50 [15]: > 100 mg/L; EC50 [19]: > 100 mg/L; EC50 [20]: > 100 mg/L; EC50 [27]: > 100 mg/L
NC(=O)c1ncn([C@@H]2O[C@H](CO)[C@@H](O)[C@H]2O)n1 [RIBAVIRIN]	48 mg/L (≈ 197 µM)	> 400 µg/mL	> 400 µg/mL	> 400 µg/mL										48 mg/L (≈ 197 µM)	240 mg/L (≈ 983 µM)	16 mg/L (≈ 65.5 µM)	48 mg/L (≈ 197 µM)	48 mg/L (≈ 197 µM)	240 mg/L (≈ 983 µM)	80 mg/L (≈ 328 µM)	EC50 [27]: 240 mg/L (≈ 983 µM)
Nc1ncn(C[C@H](CO)OCP(=O)(O)O)c(=O)n1	> 200 mg/L	> 200 µg/mL	> 200 µg/mL	> 200 µg/mL	> 100 µg/mL	11.8 mg/L (≈ 42.1 µM)	17.8 mg/L (≈ 63.5 µM)	12.6 mg/L (≈ 45 µM)	13.8 mg/L (≈ 49.3 µM)	8.9 mg/L (≈ 31.8 µM)	> 100 µg/mL	> 100 µg/mL	> 100 mg/L	> 200 mg/L	> 200 mg/L	> 200 mg/L	> 200 mg/L	> 200 mg/L	> 200 mg/L	> 200 mg/L	CC50 [6]: > 100 mg/L; CC50 [29]: > 50 mg/L; EC50 [9]: 14.8 mg/L (≈ 52.8 µM); EC50 [13]: 7.3 mg/L (≈ 26.1 µM); EC50 [15]: ≥ 81.6 mg/L; EC50 [19]: > 100 mg/L; EC50 [20]: > 100 mg/L; EC50 [27]: > 200 mg/L
Nc1ccn(C[C@@H](CO)OCP(=O)(O)O)c(=O)n1.O.O [CIDOFOVIR]						0.09 mg/L	0.38 mg/L	0.35 mg/L	0.077 mg/L	0.3 mg/L	> 100 µg/mL	60.9 µg/mL									EC50 [9]: 0.43 mg/L; EC50 [12]: 0.073 mg/L; EC50 [13]: 0.2 mg/L; EC50 [30]: 1.53 mg/L; EC50 [15]: 2.6 mg/L; MCC [31]: 37 µg/mL
O=c1[nH]c(=O)n([C@H]2C[C@H](O)[C@@H](CO)O2)cc1/C=C/Br [BRIVUDINE]	> 400 mg/L	> 400 µg/mL	> 400 µg/mL	> 400 µg/mL	> 100 µg/mL	0.0025 mg/L (≈ 0.0075 µM)	> 20 mg/L		0.0069 mg/L (≈ 0.0207 µM)		> 100 µg/mL	>= 100 ug ml-1	> 100 mg/L	> 400 mg/L	> 400 mg/L	> 400 mg/L	> 400 mg/L	> 400 mg/L	> 400 mg/L	> 400 mg/L	EC50 [12]: ≥ 122 mg/L; EC50 [19]: > 100 mg/L; EC50 [20]: > 100 mg/L; EC50 [27]: > 400 mg/L
Nc1nc(O)c2ncn(COC(CO)CO)c2n1 [GANCICLOVIR]							0.91 mg/L (≈ 3.57 µM)	0.0096 mg/L (≈ 0.0376 µM)		1.5 mg/L (≈ 5.88 µM)	> 100 µg/mL	83.6 µg/mL									
